Data taken from US9669030B2, “Hydantoin derivatives as Kv3 inhibitors” (AUTIFONY THERAPEUTICS LIMITED, priority 2012, dated 2017).

System: chinchilla model of acute noise-induced hearing loss
Test: chinchilla model of acute noise-induced hearing loss, auditory brainstem response thresholds
Format: in vivo
Conditions: 60 mg/kg intraperitoneal, doses 12 hours apart, five pre- and five post-noise, 105 dB SPL noise centered at 4 kHz for 6 hours, 21 days after noise exposure, 2, 4, 6, 8 kHz, p<0.01
Excerpt: The otoprotective efficacy (i.e. the ability to prevent or reduce the development of permanent acute noise-induced hearing loss) of an exemplary Kv3 modulator, Example 64 described within WO2011069951A1 ((5R)-5-ethyl-5-methyl-3-[2-({4-methyl-3-[(trifluoromethyl)oxy]phenyl}oxy)-5-pyrimidinyl]-2,4-imidazolidinedione), referred to herein as “COMPOUND X”, was investigated using a chinchilla model of acute noise-induced hearing loss, as follows:
Subjects comprised male, 3 year old chinchillas (Laniger), 10 animals per group. Chinchillas were housed in the study facility for a minimum of 5 days prior to noise exposure. Food and water were available ad libitum. Animals were maintained at 21° C. on a 12/12 light/dark cycle. […]
Auditory brainstem responses (ABRs) were collected prior to noise exposure and 21 days after noise exposure. […] Thresholds were measured in response to tone-bursts with 1 ms rise/fall and a 0 ms plateau gated by a Blackman envelope and centred at the frequencies of 2, 4, 6 and 8 kHz, presented at 30/s. […]
The thresholds for ABRs at the four different sound frequencies at day 21 post-noise exposure were compared to the thresholds at baseline, prior to noise exposure in order to determine a threshold shift for each animal. The data were then analysed using a 2-way ANOVA, with treatment and frequency as main factors.

Question: `CC[C@@]1(C)NC(=O)N(c2cnc(Oc3ccc(C)c(OC(F)(F)F)c3)nc2)C1=O` [COMPOUND X, (5R)-5-ethyl-5-methyl-3-[2-({4-methyl-3-[(trifluoromethyl)oxy]phenyl}oxy)-5-pyrimidinyl]-2,4-imidazolidinedione] was tested. Which “permanent threshold shift in ABRs” value did it give?
Answer: significantly reduced
